# Reference: patent US8063065B2, “Azaindazole compounds as CCR1 receptor antagonists” (Boehringer Ingelheim International GmbH, priority 2008, dated 2011)
# Biological target: T1, CCR1 (Homo sapiens, UniProt P32246)
# T1 sequence (P32246 1-355): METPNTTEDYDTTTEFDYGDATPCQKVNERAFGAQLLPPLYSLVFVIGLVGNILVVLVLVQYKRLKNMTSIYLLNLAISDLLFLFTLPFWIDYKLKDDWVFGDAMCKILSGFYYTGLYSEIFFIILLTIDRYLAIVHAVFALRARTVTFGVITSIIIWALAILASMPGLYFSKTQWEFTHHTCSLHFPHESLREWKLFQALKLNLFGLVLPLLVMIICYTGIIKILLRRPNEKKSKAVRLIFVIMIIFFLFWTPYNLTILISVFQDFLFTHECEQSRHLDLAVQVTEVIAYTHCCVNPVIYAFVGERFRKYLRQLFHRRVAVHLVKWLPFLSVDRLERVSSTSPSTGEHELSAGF
# Assay: Method B: calcium flux in CCR1 transfected cells (Calcium 4 dye, […] FDSS6000), block of the CCR1/MIP-1α interaction
# Format: cell-based
# Details: Method B: Calcium 4 dye, MIP-1alpha at EC80
# Protocol: Compounds are assessed for the ability to block the interaction of CCR1 and MIP-1α in a functional cellular assay measuring calcium flux in CCR1 transfected cells.
# Method B: Non-adherent cells purchased from Chemicon Corporation (HTS005C), stably expressing recombinant CCR1 and G-alpha-16 are grown in RPMI 1640 medium (Mediatech 10-080-CM) supplemented with 10% FBS, 0.4 mg/mL Geneticin and penicillin/streptomycin. On the day of the assay, the cells are loaded with Calcium 4 dye (Molecular Devices R7448) with Probenecid (Invitrogen P346400) at 8E5 cells/mL for 1 hour at room temperature. After 1 hour, they are seeded in a 384-well tissue culture-treated plate at a density of 20,000 cells/well. Appropriately diluted test compound is added to the well to achieve a top concentration of 3,000 nM (diluted 4-fold with 10 doses total). The final concentration of DMSO is 1%. The buffer is HBSS (Invitrogen 14025) with 20 mM HEPES at pH 7.4. The cells incubate 30 minutes at 37 C and then 30 minutes at room temperature. The plates are transferred to the […] FDSS6000 where MIP-1alpha in 1% BSA is added at the EC80 final concentration. All plates must be read within 4 hours of the start of dye-loading. Wells+/−MIP-1alpha containing diluted DMSO instead of compound serve as the controls. Data are analyzed using Activity Base software.
row,Structure (SMILES),IC50 [nM]
1,"CC(C)(O)CNS(=O)(=O)c1ccc(CNC(=O)c2cncc3c2cnn3-c2ccc(F)cc2)cc1 [1-(4-Fluorophenyl)-1H-pyrazolo[3,4-c]pyridine-4-carboxylic acid 4-(2-hydroxy-2-methyl-propylsulfamoyl)-benzylamide]",1
2,"CS(=O)(=O)n1ccc2c(CNC(=O)c3cncc4c3cnn4-c3ccc(F)cc3)ccnc21 [1-(4-Fluorophenyl)-1H-pyrazolo[3,4-c]pyridine-4-carboxylic acid (1-methanesulfonyl-1H-pyrrolo[2,3-b]pyridin-4-ylmethyl)-amide]",3
3,"CS(=O)(=O)c1cc(CNC(=O)c2cncc3c2cnn3-c2ccc(F)cc2)cc(Br)n1 [1-(4-Fluorophenyl)-1H-pyrazolo[3,4-c]pyridine-4-carboxylic acid (2-bromo-6-methanesulfonyl-pyridin-4-ylmethyl)-amide]",1
4,"O=C(NCc1cnc(Br)s1)c1cncc2c1cnn2-c1ccc(F)cc1 [1-(4-Fluorophenyl)-1H-pyrazolo[3,4-c]pyridine-4-carboxylic acid (2-bromo-thiazol-5-ylmethyl)-amide]",25
5,"COc1cc(CNC(=O)c2cncc3c2cnn3-c2ccc(F)cc2)cc(S(C)(=O)=O)n1 [1-(4-Fluorophenyl)-1H-pyrazolo[3,4-c]pyridine-4-carboxylic acid (2-methanesulfonyl-6-methoxy-pyridin-4-ylmethyl)-amide]",1
6,"Cc1cc(CNC(=O)c2cncc3c2cnn3-c2ccc(F)cc2)cc(S(C)(=O)=O)n1 [1-(4-Fluorophenyl)-1H-pyrazolo[3,4-c]pyridine-4-carboxylic acid (2-methanesulfonyl-6-methyl-pyridin-4-ylmethyl)-amide]",5
7,"CS(=O)(=O)c1nc(CNC(=O)c2cncc3c2cnn3-c2ccc(F)cc2)cs1 [1-(4-Fluorophenyl)-1H-pyrazolo[3,4-c]pyridine-4-carboxylic acid (2-methanesulfonyl-thiazol-4-ylmethyl)-amide]",29
8,"CS(=O)(=O)c1ncc(CNC(=O)c2cncc3c2cnn3-c2ccc(F)cc2)s1 [1-(4-Fluorophenyl)-1H-pyrazolo[3,4-c]pyridine-4-carboxylic acid (2-methanesulfonyl-thiazol-5-ylmethyl)-amide]",17
9,"O=C(NCc1cnc(N2CCOCC2)nc1)c1cncc2c1cnn2-c1ccc(F)cc1 [1-(4-Fluorophenyl)-1H-pyrazolo[3,4-c]pyridine-4-carboxylic acid (2-morpholin-4-yl-pyrimidin-5-ylmethyl)-amide]",8
10,"O=C(NCc1cnc(N2CCOCC2)s1)c1cncc2c1cnn2-c1ccc(F)cc1 [1-(4-Fluorophenyl)-1H-pyrazolo[3,4-c]pyridine-4-carboxylic acid (2-morpholin-4-yl-thiazol-5-ylmethyl)-amide]",16
11,"O=C(NCc1cc(Br)cs1)c1cncc2c1cnn2-c1ccc(F)cc1 [1-(4-Fluorophenyl)-1H-pyrazolo[3,4-c]pyridine-4-carboxylic acid (4-bromo-thiophen-2-ylmethyl)-amide]",7
12,"CS(=O)(=O)c1csc(CNC(=O)c2cncc3c2cnn3-c2ccc(F)cc2)c1 [1-(4-Fluorophenyl)-1H-pyrazolo[3,4-c]pyridine-4-carboxylic acid (4-methanesulfonyl-thiophen-2-ylmethyl)-amide]",5
13,"O=C(NCc1ccc(Br)s1)c1cncc2c1cnn2-c1ccc(F)cc1 [1-(4-Fluorophenyl)-1H-pyrazolo[3,4-c]pyridine-4-carboxylic acid (5-bromo-thiophen-2-ylmethyl)-amide]",19
14,"CS(=O)(=O)c1ccc(CNC(=O)c2cncc3c2cnn3-c2ccc(F)cc2)s1 [1-(4-Fluorophenyl)-1H-pyrazolo[3,4-c]pyridine-4-carboxylic acid (5-methanesulfonyl-thiophen-2-ylmethyl)-amide]",5

# The remaining lines, values ahead:
row,IC50 [nM],Structure (SMILES)
1,11,"CS(=O)(=O)c1cc([C@H](CC(O)CO)NC(=O)c2cncc3c2cnn3-c2ccc(F)cc2)ccn1 (single isomer, unassigned)"
2,17,"CS(=O)(=O)c1cc(CNC(=O)c2cncc3c2cnn3-c2ccc(F)cc2)cc(=O)[nH]1 [1-(4-Fluorophenyl)-1H-pyrazolo[3,4-c]pyridine-4-carboxylic acid (6-methanesulfonyl-2-oxo-1,2-dihydropyridin-4-ylmethyl)-amide]"
3,23,"CC[C@H](NC(=O)c1cncc2c1cnn2-c1ccc(F)cc1)c1ccccn1 [1-(4-Fluorophenyl)-1H-pyrazolo[3,4-c]pyridine-4-carboxylic acid ((S)-1-pyridin-2-yl-propyl)-amide]"
4,32,"C=CC[C@H](NC(=O)c1cncc2c1cnn2-c1ccc(F)cc1)c1ccncc1 [1-(4-Fluorophenyl)-1H-pyrazolo[3,4-c]pyridine-4-carboxylic acid ((S)-1-pyridin-4-yl-but-3-enyl)-amide]"
5,6,"CC[C@H](NC(=O)c1cncc2c1cnn2-c1ccc(F)cc1)c1ccncc1 [1-(4-Fluorophenyl)-1H-pyrazolo[3,4-c]pyridine-4-carboxylic acid ((S)-1-pyridin-4-yl-propyl)-amide]"
6,2,"CC[C@H](NC(=O)c1cncc2c1cnn2-c1ccc(F)cc1)c1ccnc(N(C)CCO)c1 [1-(4-Fluorophenyl)-1H-pyrazolo[3,4-c]pyridine-4-carboxylic acid ((S)-1-{2-[(2-hydroxy-ethyl)-methyl-amino]-pyridin-4-yl}-propyl)-amide]"
7,1,"CC[C@H](NC(=O)c1cncc2c1cnn2-c1ccc(F)cc1)c1ccnc(N(C)CCOC)c1 [1-(4-Fluorophenyl)-1H-pyrazolo[3,4-c]pyridine-4-carboxylic acid ((S)-1-{2-[(2-methoxy-ethyl)-methyl-amino]-pyridin-4-yl}-propyl)-amide]"
8,10,"CCC(NC(=O)c1cncc2c1cnn2-c1ccc(F)cc1)C1CCN(C(C)=O)CC1 (centres unmarked) [1-(4-Fluorophenyl)-1H-pyrazolo[3,4-c]pyridine-4-carboxylic acid [1-(1-acetyl-piperidin-4-yl)-propyl]-amide]"
9,16,"CCC(NC(=O)c1cncc2c1cnn2-c1ccc(F)cc1)C1CCN(C(N)=O)CC1 (centres unmarked) [1-(4-Fluorophenyl)-1H-pyrazolo[3,4-c]pyridine-4-carboxylic acid [1-(1-carbamoyl-piperidin-4-yl)-propyl]-amide]"
10,2,"CCC(NC(=O)c1cncc2c1cnn2-c1ccc(F)cc1)C1CCCN(S(C)(=O)=O)C1 (centres unmarked) [1-(4-Fluorophenyl)-1H-pyrazolo[3,4-c]pyridine-4-carboxylic acid [1-(1-methanesulfonyl-piperidin-3-yl)-propyl]-amide]"
11,2,"CCC(NC(=O)c1cncc2c1cnn2-c1ccc(F)cc1)C1CCN(S(C)(=O)=O)CC1 (centres unmarked) [1-(4-Fluorophenyl)-1H-pyrazolo[3,4-c]pyridine-4-carboxylic acid [1-(1-methanesulfonyl-piperidin-4-yl)-propyl]-amide]"
12,29,"CCC(CC)(NC(=O)c1cncc2c1cnn2-c1ccc(F)cc1)c1ccnc(Br)c1 [1-(4-Fluorophenyl)-1H-pyrazolo[3,4-c]pyridine-4-carboxylic acid [1-(2-bromo-pyridin-4-yl)-1-ethyl-propyl]-amide]"
13,14,"CC(C)(NC(=O)c1cncc2c1cnn2-c1ccc(F)cc1)c1ccnc(Br)c1 [1-(4-Fluorophenyl)-1H-pyrazolo[3,4-c]pyridine-4-carboxylic acid [1-(2-bromo-pyridin-4-yl)-1-methyl-ethyl]-amide]"
14,11,"CCC(C)(NC(=O)c1cncc2c1cnn2-c1ccc(F)cc1)c1ccnc(Br)c1 (centres unmarked) [1-(4-Fluorophenyl)-1H-pyrazolo[3,4-c]pyridine-4-carboxylic acid [1-(2-bromo-pyridin-4-yl)-1-methyl-propyl]-amide]"
15,6,"CCC(C)(NC(=O)c1cncc2c1cnn2-c1ccc(F)cc1)c1ccnc(S(C)(=O)=O)c1 (centres unmarked) [1-(4-Fluorophenyl)-1H-pyrazolo[3,4-c]pyridine-4-carboxylic acid [1-(2-methanesulfonyl-pyridin-4-yl)-1-methyl-propyl]-amide]"
16,26,"CCC(NC(=O)c1cncc2c1cnn2-c1ccc(F)cc1)c1nc(C(N)=O)c(C)o1 (centres unmarked) [1-(4-Fluorophenyl)-1H-pyrazolo[3,4-c]pyridine-4-carboxylic acid [1-(4-carbamoyl-5-methyl-oxazol-2-yl)-propyl]-amide]"
17,36,"CCC(NC(=O)c1cncc2c1cnn2-c1ccc(F)cc1)c1nc(C(N)=O)co1 (centres unmarked) [1-(4-Fluorophenyl)-1H-pyrazolo[3,4-c]pyridine-4-carboxylic acid [1-(4-carbamoyl-oxazol-2-yl)-propyl]-amide]"
18,16,"CCC(NC(=O)c1cncc2c1cnn2-c1ccc(F)cc1)c1nc(C(=O)NC)co1 (centres unmarked) [1-(4-Fluorophenyl)-1H-pyrazolo[3,4-c]pyridine-4-carboxylic acid [1-(4-methylcarbamoyl-oxazol-2-yl)-propyl]-amide]"
